In US4067997A, “Synergistic microbecidal composition and method” (priority 1976, dated 1978):
Converted amounts (≈) assume the structure as drawn. Read-outs that look alike come from different tables or passages of the source.

Key:
[1] = test system: Candida albicans; assay: MIC on mass basis (Example V procedure); assay type: cell-based
Description: (§1) The essential procedure of Example I was followed with a series of phenolic compounds, with the exception that the test method was conducted on a mass (μg/ml) basis rather than a molecular (mol/ml) basis of the foregoing tests, since the long established phenol-coeffecient test is on a mass rather than molecular basis. Additionally, a different but closely related group of organisms were used in this test, in order to give a complete representative span on gram-negative, gram-positive and fungus organisms. Additionally, the phenolic derivatives chosen for test purposes include a number of derivatives which are presently accepted by the FDA as food-grade phenolic microbicides.
(§2) The same procedure of Example V was repeated but with combinations of mono-laurin (GML).
(§3) The procedure of Example V was repeated with combinations of glycerol mono-laurin (GML) and ethylenediamine tetraacetic acid (EDTA) as the calcium salt and in combination with BHA.

[2] = test system: Escherichia coli; assay: MIC on mass basis (Example V procedure); assay type: cell-based; conditions: Escherichia coli
Description: as §1, §2, §3

[3] = test system: Nocardia asteroides; assay: MIC on mass basis (Example V procedure); assay type: cell-based
Description: as §1, §2, §3

[4] = test system: Pseudomonas aeruginosa; assay: MIC on mass basis (Example V procedure); assay type: cell-based
Description: as §1, §2, §3

[5] = test system: Saccharomyces cerevisiae; assay: MIC on mass basis (Example V procedure); assay type: cell-based; conditions: Saccharomyces cerevisiae
Description: as §1, §2, §3

[6] = test system: Staphylococcus aureus; assay: MIC on mass basis (Example V procedure); assay type: cell-based
Description: as §1, §2, §3

[7] = test system: Corynebacterium sp.; assay: MIC on mass basis (Example V procedure); assay type: cell-based
Description: as §1

[8] = test system: Streptococcus faecalis (Group D); assay: MIC on mass basis (Example V procedure); assay type: cell-based; conditions: Enterococcus faecalis
Description: as §1

[9] = test system: Streptococcus pyogenes; assay: MIC on mass basis (Example V procedure); assay type: cell-based
Description: as §1

[10] = test system: Streptococcus Group A; assay: MIC, broth dilution (Examples I/II); assay type: cell-based, beta-hemolytic streptococci Group A
Description: (§4) In order to establish comparative bactericidal and fungicidal results with homologous fatty acids, a series of experiments was performed with thirty straight-chain fatty acids and derivatives thereof. Eight different gram-negative and twelve different gram-positive organisms, representing a very broad spectrum of organisms, were used in these experiments including the fungus Candida (a yeast). Additionally, fatty acids were chosen to show the effects of saturation versus unsaturation, in the fatty acid claim. Standard solutions of the fatty acids and their derivatives were prepared by first dissolving the weighed compounds in 1 to 2 ml of 95% ethanol and immediately pouring this solution into 200 ml of Tripticase Soy Broth. These lipid compounds which are insoluble in water and broth precipitated into very small crystals or droplets. The tubes containing the suspension were warmed to approximately 70° C and were then placed in an ultrasonic tank for further solubilization of the lipid derivatives.
(§5) Standard solutions (or suspensions) at 1,000 μg/ml were twofold serially diluted with additional broth to a concentration of 125 μg/ml. A 4-ml amount of each dilution was then quickly, and with constant agitation, dispensed into appropriately labeled screw-capped glass tubes (16 by 125 mm). The tubes were sterilized with steam at 15 psi for 15 minutes. After sterilization, all tubes were cooled and incubated overnight at 35° C to insure sterility.
(§6) All compounds were compared on a molar (micromoles/milliliter) rather than on a mass basis. In the following lists of organisms used, those followed by a parenthetical number are registered with the American Type Culture Collection (ATCC); the remainder were isolates from Providence Hospital or Northland Laboratory.
(§7) One drop (0.04 ± 0.01 ml) of an 18-hr broth culture containing 10^7 and 10^9 organisms/ml was added to each dilution of the test compound, as well as to a tube of plain broth which served as the positive control. After inoculation, the contents of each tube were well mixed, and the tubes were incubated at 35° C in a 5% carbon dioxide + […] atmosphere.
(§8) The MIC is defined as the lowest concentration of compound at which no […] evidence of growth was observed when turbidity of the inoculated broth dilutions was compared with control tubes. […] Only a one-tube difference between the bactericidal and bacteriostatic concentrations was normally observed.
(§9) Standard solutions (1000 μg/ml) of three fatty acids and polyglycerol esters thereof were prepared as described in Example I. Also sucrose esters were prepared by transferring the weighed compounds (0.2 gm. dissolved in 1 ml absolute methanol) into 200 ml of sterile Trypticase Soy Broth (TSB). These standard solutions (1000 μg/ml) were twofold serially diluted with additional sterile broth to a concentration of 125 μg/ml. A 3.8 aliquot of each dilution was asceptically delivered into sterile screw-capped culture tubes. All tubes were incubated overnight at 36° C to insure sterility. The microorganisms used in this example were the same as those used in Example I.
(§10) The inoculum, 0.05 ml of an 13-24 hour TSB culture (approximately 10^9 organisms/ml) was asceptically delivered into all dilutions of the compounds, mixed well, and incubated at 36° C. A tube of inoculated broth without the compound served as a positive control and an uninoculated set of dilutions incubated along with the test dilutions, served as a negative control.
(§11) In those cases in which the test compound itself caused turbidity, an aliquot (0.015 ml) of the mixed broth was inoculated onto an agar plate and incubated at 36° C for examination, as described in Example I. The control procedure of Example I was also repeated. The lauric, capric, and oleic acids were used as internal controls and for comparison to Example I. The minimal inhibitory concentrations (μmole/ml) for the compounds studied are given in Tables 7 and 8.

[11] = test system: Nocardia asteroides; assay: MIC, broth dilution (Examples I/II); assay type: cell-based, Nocardia asteroids (3308); conditions: Nocardia asteroides, read-out: Inhibitory concentration
Description: as §4, §5, §6, §7, §8, §9, §10, §11

[12] = test system: nine gram-positive organisms and the yeast/fungus Candida; assay: MIC, broth dilution, over all organisms (Examples I/II); assay type: cell-based
Description: as §4, §5, §6
Staphylococcus aureus, S. epidermidis, beta-hemolytic streptococci (Group A and non-group A), group D streptococcus, Bacillus subtilis (6051), Sarcina lutea (9431), Micrococcus sp., Candida albicans, Nocardia asteroids (3308), Corynebacterium sp. (10700), and pneumococcus (63001).
as §7, §8
Table 5 presents a comparison of the C10 and C12 free acids and their glyceryl derivatives, and Table 6 gives the corresponding ranges of activity.
as §9
The inoculum, 0.05 ml of an 13-24 hour TSB culture (approximately 10^9 organisms/ml) was asceptically delivered into all dilutions of the compounds, mixed well, and incubated at 36° C. […]

[13] = Table 2, range over the organisms of Table 1, read-out: MIC range
[14] = Table 6, range over the organisms of Table 5, NI = no inhibition
[15] = Candida albicans, Table 12, Candida albicans, read-out: MIC
[16] = Table 12, Eschericia coli, read-out: MIC
[17] = Table 12, Nocardia asteroides, read-out: MIC
[18] = Pseudomonas aeruginosa, Table 12, Pseudomonas aeruginosa, read-out: MIC
[19] = Table 12, Saccharomyces cerevisiae, read-out: MIC
[20] = Staphylococcus aureus, Table 12, Staphylococcus aureus, read-out: MIC
[21] = Table 12, Corynebacterium sp., read-out: MIC
[22] = Table 12, Streptococcus faecalis (Group D), read-out: MIC
[23] = Table 12, Streptococcus pyogenes, read-out: MIC

O=C(O)CN(CCN(CC(=O)O)CC(=O)O)CC(=O)O [EDTA, ethylenediamine tetraacetic acid]
MIC ([1]; Candida albicans, read-out: MIC of EDTA alone): 5000 µg/mL | MIC ([1]; Table 16, Candida albicans, no unit in table): > 1,000 | MIC ([2]; Table 16, Escherichia coli, no unit in table (Example 5 procedure, mass basis)): > 1000 µg/mL | MIC ([2]; read-out: MIC of EDTA alone, Table 17, 0 amount of GML): > 10000 µg/mL | MIC ([3]; Nocardia asteroides, read-out: MIC of EDTA alone): 500 µg/mL | MIC ([3]; Table 16, Nocardia asteroides, no unit in table): 1,000 | MIC ([4]; Pseudomonas aeruginosa, read-out: MIC of EDTA alone): 5000 µg/mL | MIC ([4]; Table 16, Pseudomonas aeruginosa, no unit in table): > 1,000 | MIC ([5]; Table 16, Saccharomyces cerevisiae, no unit in table, read-out: MIC): 1000 µg/mL | MIC ([5]; Table 17, 0 amount of GML, read-out: MIC of EDTA alone): 1000 µg/mL | MIC ([6]; Staphylococcus aureus, read-out: MIC of EDTA alone): 5000 µg/mL | MIC ([6]; Table 16, Staphylococcus aureus, no unit in table): > 1,000 | MIC ([7]; Corynebacterium): 1000 µg/mL (≈ 3.42 mM) | MIC ([7]; Corynebacterium, read-out: MIC of EDTA alone): 1000 µg/mL | MIC [8]: > 1000 µg/mL | MIC ([8]; read-out: MIC of EDTA alone): 5000 µg/mL | MIC ([9]; Streptococcus pyogenes): 1000 µg/mL (≈ 3.42 mM) | MIC ([9]; Streptococcus pyogenes, read-out: MIC of EDTA alone): 1000 µg/mL

CCCCCCCCCCC(O)C(=O)O (stereo not drawn) [α-hydroxylaurate]
MIC ([10]; read-out: Inhibitory concentration, Group A Strep): 230 µM (≈ 49.8 µg/mL) | MIC [11]: 4.63 mM (≈ 1000 µg/mL)

CCCCCC/C=C\CCCCCCCC(=O)O [Palmitoleic]
MIC [12, 13]: 24 to 983 µM (≈ 6.11 to 250 µg/mL)

CCCCCCCCCC(=O)O [Capric acid, capric acid]
MIC [12, 13]: 1450 to 5800 µM (≈ 250 to 999 µg/mL) | MIC range [12, 14]: 1.45 - 5.8 μ/Mol/ml

CCCCCCCCc1cc(C(C)(C)C)c(O)c(C(C)(C)C)c1 [C8, 2,6-di-tert-4-octylphenol]
MIC [1, 15]: > 5000 µg/mL | MIC [2, 16]: > 5000 µg/mL | MIC [3, 17]: 5000 µg/mL | MIC [4, 18]: > 5000 µg/mL | MIC [5, 19]: > 5000 µg/mL | MIC [6, 20]: > 5000 µg/mL | MIC [7, 21]: 5000 µg/mL (≈ 15.7 mM) | MIC [8, 22]: > 5000 µg/mL | MIC [9, 23]: > 5000 µg/mL

CCCCCCCCCCCCO [Lauryl alcohol]
MIC ([12]; Table 4, range over the organisms of Table 3, read-out: MIC range): 67 to 5400 µM (≈ 12.5 to 1010 µg/mL)

Triglycerol oleate
MIC ([12]; Table 7, one entry across all (oleic acid: all other than Grp. A) organisms, NO INHIBITION, max. tested listed): > 1980 µM | Activity in words ([12]; at the concentration tested): no activity at the concentration tested

CCCCc1cc(C(C)(C)C)c(O)c(C(C)(C)C)c1 [C4, 2,6-di-tert-4-butylphenol]
MIC [1, 15]: > 5000 µg/mL | MIC [2, 16]: > 5000 µg/mL | MIC [3, 17]: 500 µg/mL | MIC [4, 18]: > 5000 µg/mL | MIC [5, 19]: > 5000 µg/mL | MIC [6, 20]: > 5000 µg/mL | MIC [7, 21]: 1000 µg/mL (≈ 3.81 mM) | MIC [8, 22]: > 5000 µg/mL | MIC [9, 23]: 5000 µg/mL (≈ 19.1 mM)

CCCCCCc1cc(C(C)(C)C)c(O)c(C(C)(C)C)c1 [C6, 2,6-di-tert-4-hexylphenol]
MIC [1, 15]: > 5000 µg/mL | MIC [2, 16]: > 5000 µg/mL | MIC [3, 17]: 5000 µg/mL | MIC [4, 18]: > 5000 µg/mL | MIC [5, 19]: > 5000 µg/mL | MIC [6, 20]: > 5000 µg/mL | MIC [7, 21]: 5000 µg/mL (≈ 17.2 mM) | MIC [8, 22]: > 5000 µg/mL | MIC [9, 23]: > 5000 µg/mL

CCCCCCCCCCCC(=O)O [Lauric acid, lauric acid]
MIC ([10]; group A Streptococci, Bio Gel and Florisil used): > 990 µM | MIC ([10]; group A Streptococci, filtered (laurate crystals removed)): 1000 µM (≈ 200 µg/mL) | MIC ([10]; group A Streptococci, non-filtered broth): 125 µM (≈ 25 µg/mL) | Effect of albumin on MIC ([12]; Albumin (0.1%) added): had no effect on the determination of the MIC | MIC range ([12]; Table 4, range over the organisms of Table 3): 0.062 to 2.49 µmol/mL | MIC range [12, 14]: 0.062 - 2.49 μ/Mol/ml | MIC ([12]; read-out: MIC range): 62 to 2490 µM (≈ 12.4 to 499 µg/mL) | Inhibition in words ([12]; saturated acids, Table 1): clearly the more active saturated acid
